Inconclusive results and toxic doses are left out.
Test system: P388 leukemia ip, CD2F1 mice, survival T/C
Assay: NCI In Vivo Anticancer Drug Screen. Data for tumor model P388 Leukemia (intraperitoneal) in CD2F1 (CDF1) mice
Conditions: endpoint: median survival time, higher = longer survival
Procedure, shortened: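 Mice carrying the transplanted tumor received test compound or vehicle. Survival was recorded in each group, and the value is the treated-group measurement divided by that of the vehicle-treated control group.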

[1] = dose: 60.0 mg/kg/injection, schedule: Q01DX005 (ip), vehicle: saline with Tween-80
[2] = dose: 120.0 mg/kg/injection, schedule: Q01DX005 (ip), vehicle: saline with Tween-80
[3] = dose: 240.0 mg/kg/injection, schedule: Q01DX005 (ip), vehicle: saline with Tween-80

COc1ccc(CC2C(=O)NC(C)C(=O)N(C)C3C(=O)N(C)C(Cc4ccc(O)c(c4)Oc4ccc(cc4)C3O)C(=O)NC(C)C(=O)NC(C)C(=O)N2C)cc1 (configuration not stated)
T/C (dose: 0.03 mg/kg/injection, schedule: Q01DX009 (ip), vehicle: Klucel (hydroxypropylcellulose) (HPC)): 94 % of control | T/C (dose: 0.03 mg/kg/injection, schedule: Q01DX009 (ip), vehicle: saline + alcohol): 100 % of control | T/C (dose: 0.03 mg/kg/injection, schedule: Q03HX024 (ip), vehicle: saline + alcohol): 123 % of control | T/C (dose: 0.06 mg/kg/injection, schedule: Q01DX009 (ip), vehicle: Klucel (hydroxypropylcellulose) (HPC)): 102 % of control | T/C (dose: 0.06 mg/kg/injection, schedule: Q01DX009 (ip), vehicle: saline + alcohol): 106 % of control | T/C (dose: 0.06 mg/kg/injection, schedule: Q03HX008 (ip), vehicle: saline + alcohol): 118 % of control | T/C (dose: 0.06 mg/kg/injection, schedule: Q03HX016 (ip), vehicle: saline + alcohol): 122 % of control | T/C (dose: 0.12 mg/kg/injection, schedule: Q01DX009 (ip), vehicle: Klucel (hydroxypropylcellulose) (HPC)): 104 % of control | T/C (dose: 0.12 mg/kg/injection, schedule: Q01DX009 (ip), vehicle: saline + alcohol): 111 % of control | T/C (dose: 0.13 mg/kg/injection, schedule: Q03HX024 (ip), vehicle: other): 103 % of control | T/C (dose: 0.13 mg/kg/injection, schedule: Q03HX024 (ip), vehicle: saline + alcohol): 153 % of control | T/C (dose: 0.25 mg/kg/injection, schedule: Q01DX005 (ip), vehicle: saline): 116 % of control | T/C (dose: 0.25 mg/kg/injection, schedule: Q01DX005 (iv), vehicle: other): 100 % of control | T/C (dose: 0.25 mg/kg/injection, schedule: Q01DX005 (iv), vehicle: saline): 107 % of control | T/C (dose: 0.25 mg/kg/injection, schedule: Q01DX009 (ip), vehicle: Klucel (hydroxypropylcellulose) (HPC)): 113 % of control | T/C (dose: 0.25 mg/kg/injection, schedule: Q01DX009 (sc), vehicle: other): 95 % of control | T/C (dose: 0.25 mg/kg/injection, schedule: Q03HX008 (ip), vehicle: other): 120 % of control | T/C (dose: 0.25 mg/kg/injection, schedule: Q03HX016 (ip), vehicle: other): 100 % of control | T/C (dose: 0.25 mg/kg/injection, schedule: Q03HX024 (ip), vehicle: other): 91 % of control | T/C (dose: 0.25 mg/kg/injection, schedule: Q03HX024 (ip), vehicle: saline + alcohol): 157 % of control | T/C (dose: 0.5 mg/kg/injection, schedule: Q01DX005 (iv), vehicle: other): 98 % of control | T/C (dose: 0.5 mg/kg/injection, schedule: Q01DX005 (iv), vehicle: saline): 114 % of control | T/C (dose: 0.5 mg/kg/injection, schedule: Q01DX009 (ip), vehicle: clinical formulation): 157 % of control | T/C (dose: 0.5 mg/kg/injection, schedule: Q01DX009 (ip), vehicle: water): 154 % of control | T/C (dose: 0.5 mg/kg/injection, schedule: Q01DX009 (oral), vehicle: other): 98 % of control | T/C (dose: 0.5 mg/kg/injection, schedule: Q01DX009 (sc), vehicle: other): 99 % of control | T/C (dose: 0.5 mg/kg/injection, schedule: Q03HX016 (ip), vehicle: saline + alcohol): 150 % of control | T/C (dose: 0.5 mg/kg/injection, schedule: Q03HX024 (ip), vehicle: saline + alcohol): 172 % of control | T/C (dose: 1.0 mg/kg/injection, schedule: Q01DX001 (ip), vehicle: other): 122 % of control | T/C (dose: 1.0 mg/kg/injection, schedule: Q01DX001 (oral), vehicle: other): 103 % of control | T/C (dose: 1.0 mg/kg/injection, schedule: Q01DX005 (ip), vehicle: saline): 158 % of control | T/C (dose: 1.0 mg/kg/injection, schedule: Q01DX005 (iv), vehicle: other): 99 % of control | T/C (dose: 1.0 mg/kg/injection, schedule: Q01DX009 (ip), vehicle: Klucel (hydroxypropylcellulose) (HPC)): 113 % of control | T/C (dose: 1.0 mg/kg/injection, schedule: Q01DX009 (ip), vehicle: clinical formulation): 198 % of control | T/C (dose: 1.0 mg/kg/injection, schedule: Q01DX009 (ip), vehicle: other): 167 % of control | T/C (dose: 1.0 mg/kg/injection, schedule: Q01DX009 (ip), vehicle: saline + alcohol): 172 % of control | T/C (dose: 1.0 mg/kg/injection, schedule: Q01DX009 (ip), vehicle: water): 166 % of control | T/C (dose: 1.0 mg/kg/injection, schedule: Q01DX009 (oral), vehicle: other): 95 % of control | T/C (dose: 1.0 mg/kg/injection, schedule: Q01DX009 (sc), vehicle: other): 95 % of control | T/C (dose: 2.0 mg/kg/injection, schedule: Q01DX001 (oral), vehicle: other): 97 % of control | T/C (dose: 2.0 mg/kg/injection, schedule: Q01DX005 (ip), vehicle: other): 167 % of control | T/C (dose: 2.0 mg/kg/injection, schedule: Q01DX005 (ip), vehicle: saline): 166 % of control | T/C (dose: 2.0 mg/kg/injection, schedule: Q01DX009 (ip), vehicle: clinical formulation): 195 % of control | T/C (dose: 2.0 mg/kg/injection, schedule: Q01DX009 (ip), vehicle: other): 183 % of control | T/C (dose: 2.0 mg/kg/injection, schedule: Q01DX009 (ip), vehicle: saline + alcohol): 184 % of control | T/C (dose: 2.0 mg/kg/injection, schedule: Q01DX009 (ip), vehicle: water): 184 % of control | T/C (dose: 2.0 mg/kg/injection, schedule: Q01DX009 (oral), vehicle: other): 122 % of control | T/C (dose: 2.0 mg/kg/injection, schedule: Q04DX003 (ip), vehicle: other): 155 % of control | T/C (dose: 4.0 mg/kg/injection, schedule: Q01DX001 (oral), vehicle: other): 100 % of control | T/C (dose: 4.0 mg/kg/injection, schedule: Q01DX005 (ip), vehicle: other): 165 % of control | T/C (dose: 4.0 mg/kg/injection, schedule: Q01DX009 (ip), vehicle: Klucel (hydroxypropylcellulose) (HPC)): 116 % of control | T/C (dose: 4.0 mg/kg/injection, schedule: Q01DX009 (ip), vehicle: other): 94 % of control | T/C (dose: 4.0 mg/kg/injection, schedule: Q01DX009 (ip), vehicle: saline + alcohol): 103 % of control | T/C (dose: 4.0 mg/kg/injection, schedule: Q01DX009 (oral), vehicle: other): 122 % of control | T/C (dose: 4.0 mg/kg/injection, schedule: Q04DX003 (ip), vehicle: other): 155 % of control | T/C (dose: 4.0 mg/kg/injection, schedule: Q08DX002 (ip), vehicle: other): 152 % of control | T/C (dose: 8.0 mg/kg/injection, schedule: Q01DX001 (oral), vehicle: other): 104 % of control | T/C (dose: 8.0 mg/kg/injection, schedule: Q01DX009 (oral), vehicle: other): 92 % of control | T/C (dose: 8.0 mg/kg/injection, schedule: Q04DX003 (ip), vehicle: other): 163 % of control | T/C (dose: 16.0 mg/kg/injection, schedule: Q01DX001 (oral), vehicle: other): 95 % of control | T/C (dose: 500.0 micrograms/kg/injection, schedule: Q01DX009 (ip), vehicle: saline with Tween-80): 150 % of control | T/C (dose: 1000.0 micrograms/kg/injection, schedule: Q01DX009 (ip), vehicle: saline with Tween-80): 177 % of control | T/C (dose: 2000.0 micrograms/kg/injection, schedule: Q01DX009 (ip), vehicle: saline with Tween-80): 152 % of control

OC(c1ccccc1)C1(c2ccccc2)CCN(Cc2ccccc2)CC1 (configuration not stated)
T/C (dose: 50.0 mg/kg/injection, schedule: Q01DX005 (ip), vehicle: saline with Tween-80): 100 % of control | T/C (dose: 100.0 mg/kg/injection, schedule: Q01DX005 (ip), vehicle: saline with Tween-80): 100 % of control | T/C (dose: 200.0 mg/kg/injection, schedule: Q01DX005 (ip), vehicle: saline with Tween-80): 96 % of control

CCC(=NCCCCCCN=C(CC)c1cc(C)cc([N+](=O)[O-])c1O)c1cc(C)cc([N+](=O)[O-])c1O.[Fe]
T/C [1]: 90 % of control | T/C [2]: 86 % of control | T/C [3]: 94 % of control

COc1cccc(N2N=NCC2O)c1 (configuration not stated)
T/C [1]: 104 % of control | T/C [2]: 102 % of control | T/C [3]: 104 % of control
